Results: patent US20260000070A1 (priority 2023, published 2026)

Test system: endothelial cells / vascular system of perfused tissue

With `CNCC(O)c1ccc(O)c(O)c1` (centres unmarked) [adrenaline] the flow rate was “decrease” and the pressure was “increase”.
